Experimental data: US20240262835A1, “PRMT5 INHIBITING COMPOUNDS AND USES THEREOF” (ANTENGENE DISCOVERY LIMITED, priority 2023, published 2024)
Read-outs that look alike come from different tables or passages of the source.

Tests used:
[1] = Hepatic metabolic stability (HMS) assay, dog hepatocytes; settings: dog, cryopreserved hepatocytes
Description: 1) 10 mM test compounds were provided.
(§5) 2) 30 mM positive control stock solutions: Dissolved accurate amount of positive control compounds in dimethyl sulfoxide (DMSO).
(§6) 3) 1000× Stock Solution: Diluted 10 mM test compounds and 30 mM positive control compounds to 1 mM and 3 mM with DMSO in 96-well plates.
(§7) 4) 100× Dosing Solution: Diluted 1 mM test compounds and 3 mM positive control compounds to 100 μM and 300 μM dosing solutions with ACN.
(§8) 5) Preparation of 0.5×10^6/mL cells suspension: cryopreserved cells were thawed, isolated and suspended in Incubation Medium, then diluted with pre-warmed Incubation Medium to 0.5×10^6 cells/mL.
(§9) 6) Add 198 μL of pre-warmed cell suspensions in 96-well plates.
(§10) 7) Preparation of Quenching Plate: Transfer 125 μL of stop solution in a set of pre-labeled 96-well plates.
(§11) 8) Spike 2 μL dosing solution to each well of 96-well plates in duplicate.
(§12) 9) For TO Samples, mix to achieve a homogenous suspension for about 1 min, then immediately transfer 25 μL of each sample into well containing 125 μL of ice-cold stop solution followed by mixing.
(§13) 10) Incubate all plates at 37° C. in a 95% humidified incubator at 5% CO2 to start the reactions with constant shaking.
(§14) 11) At 15, 30, 60 and 90 min, mix samples and then transfer 25 μL of each sample at each time point to well containing 125 μL of ice-cold stop solution followed by mixing.
(§15) 12) Medium Control (MC) sample plates (labeled as TO-MC and T90-MC) are prepared in the same way as cell incubation except that medium was used instead of cell suspension.
(§16) 13) At each corresponding time point, stop the reactions by removing the plates from incubator and mixing with 125 μL of ice-cold stop solution.
(§17) 14) Vortex the plates immediately on a plate shaker at 600 rpm for 10 minutes. Then, centrifuge all sample plates at 3220×g for 20 min at 4° C.
(§18) 15) After centrifugation, 80 μL/well of supernatant in the sample plates are transferred to another set of pre-labeled 96-well plates which containing 240 μL of ultra pure water according to the plate map.
(§19) 16) Analytical plates are sealed and store at 4° C. until LC-MS/MS analysis.
(§20) The remaining percents of test articles after incubation were calculated by the follow equations:
(§21) Use the following equation of first order kinetics to calculate T1/2 and CLint:

[2] = Hepatic metabolic stability (HMS) assay, rat hepatocytes; settings: rat, cryopreserved hepatocytes
in vitro = settings: rat, microsomes
PRMT5/MEP50 = PRMT5/MEP50 (Homo sapiens (Human), UniProt O14744); experiment: MTase-Glo methyl transferase assay (PRMT5 inhibition); format: biochemical; settings: 50 nM PRMT5/MEP50, 25 μM SAM, 5 μM Histone H4 peptide (1-21), read-out: IC50 for PRMT5 inhibiting
PRMT5/MEP50, sequence (O14744 whole entry): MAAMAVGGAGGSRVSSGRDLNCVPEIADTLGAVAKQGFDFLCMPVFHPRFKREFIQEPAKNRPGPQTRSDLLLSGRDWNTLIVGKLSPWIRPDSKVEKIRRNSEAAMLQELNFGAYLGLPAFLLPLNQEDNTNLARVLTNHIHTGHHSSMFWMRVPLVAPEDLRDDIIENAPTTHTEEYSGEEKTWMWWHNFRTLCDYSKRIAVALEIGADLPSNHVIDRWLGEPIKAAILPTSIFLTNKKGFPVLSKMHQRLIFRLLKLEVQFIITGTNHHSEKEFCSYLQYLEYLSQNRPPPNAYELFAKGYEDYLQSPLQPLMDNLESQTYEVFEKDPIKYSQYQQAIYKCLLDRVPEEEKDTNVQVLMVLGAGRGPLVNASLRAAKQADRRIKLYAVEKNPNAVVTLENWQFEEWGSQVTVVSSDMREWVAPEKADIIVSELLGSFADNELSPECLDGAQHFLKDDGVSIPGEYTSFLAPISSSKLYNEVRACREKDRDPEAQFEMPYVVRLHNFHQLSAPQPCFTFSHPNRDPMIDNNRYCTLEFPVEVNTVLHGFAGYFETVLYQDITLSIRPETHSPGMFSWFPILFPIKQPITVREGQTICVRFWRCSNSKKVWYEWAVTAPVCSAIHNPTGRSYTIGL
PRMT5/MEP50, sequence (Q9BQA1 whole entry partner): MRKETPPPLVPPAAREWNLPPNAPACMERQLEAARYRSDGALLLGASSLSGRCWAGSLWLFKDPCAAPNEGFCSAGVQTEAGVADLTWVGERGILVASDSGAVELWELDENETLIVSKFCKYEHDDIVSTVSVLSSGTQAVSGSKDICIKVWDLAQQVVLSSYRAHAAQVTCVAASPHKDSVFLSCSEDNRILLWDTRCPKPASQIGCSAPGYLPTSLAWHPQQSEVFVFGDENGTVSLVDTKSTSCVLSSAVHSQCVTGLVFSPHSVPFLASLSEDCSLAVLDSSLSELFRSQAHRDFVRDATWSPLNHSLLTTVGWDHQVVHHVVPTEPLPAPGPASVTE
Description: The PRMT5 inhibitory activity of test compounds was determined using the MTase-Glo™ assay (Promega), which monitors the product (S-adenosyl homocysteine or SAH) of methyltransferase reactions. The PRMT5 MTase-Glo assays were conducted in a 384-well white ProxiPlate (PerkinElmer, catalog no.: 6008280) in a total volume of 12 μL. The PRMT5 enzymatic reaction (in 4 μL) contained 50 nM PRMT5/MEP50 (Reaction Biology Corp, catalog no.: HMT-22-148), 25 μM S-adenosyl methionine (SAM, Promega), 5 μM Histone H4 peptide (1-21) (BPS Bioscience, catalog no.: 52018-2) and five-fold serially diluted compounds in a reaction buffer of 50 mM Tris (pH 8.0), 50 mM NaCl, 0.01% Tween 20, 0.01% BSA, and 1 mM DTT. The test compounds were pre-incubated with PRMT5/MEP50 and Histone H4 peptide for 20 minutes at room temperature before the addition of SAM to initiate the PRMT5 reaction. The reaction was allowed to proceed for 1 hour at 37° C. and was terminated by 2 μL of 3× MTase-Glo™ Reagent (Promega) and 150 μM EPZ015666 (Selleck, catalog no.: 1616391-65-1). After a 30-minute incubation at room temperature, 6 μL of MTase-Glo™ Detection Solution (Promega) was added and the plate was incubated at room temperature for an additional 30 minutes. The light signal corresponding to the amount of SAH produced by the PRMT5 reaction was subsequently measured using an Envision multimode reader (PerkinElmer). IC50 and Ki values were obtained by analyzing dose-response curves using GraphPad Prism.

[3] = test system: HCT116 homozygous MTAP knockout cells; experiment: HCT116 cell proliferation assay (CTG), MTAP knockout cells; format: cell-based, human; settings: Cell Titer-Glo
Description: Control samples were analyzed in parallel.
On Day 0, 150 HCT116 parental or HCT116 homozygous MTAP knockout cells were seeded in 96-well plates in McCoy's 5A medium containing 10% fetal bovine serum and pen/strep. And the cells were incubated overnight at 37° C. and 5% CO2.
On Day 1, cells were treated with 9-point serial dilution of compound, using a top concentration of 50 μM, 1:5 serial dilution steps and, a DMSO-only control. And cells were incubated for 6 days.
On Day 7, cell viability was measured using a CTG assay Kit (Cell Titer-Glo; Promega, catalog no.: G7573) in accordance with the manufacturer's instructions. Assays plates were read on a EnVision™ Multilabel Reader using the Ultra-Sensitive luminescence model. The data were analyzed by GraphPad Prism 5.0 software, and the dose-effect curve was obtained by fitting the data using nonlinear S-curve regression, from which the IC50 value was calculated.

[4] = test system: human colon cancer cell line HCT116 (WT); experiment: In vivo efficacy assay, subcutaneous HCT116 WT xenograft; design: species or system Balb/C nude female mouse; settings: 15 mg/kg PO/QD, 21 days, Balb/C nude mice
Description: (§1) The antitumor effect or MTAP/MTA selectivity of the compounds provided herein in the subcutaneously transplanted Balb/C nude female mouse model of human colon cancer cell line HCT116 (WT and MTAP KO) was tested.
(§2) Cell viability and cell count were determined. Cell count of the suspension was adjusted to 1×10^8 cells/mL and mixed with Matrigel in a 1:1 volume. Each mouse for this study were inoculated subcutaneously in the right front flank region with 5×10^6 tumor cells (0.1 mL) for tumor development.
(§3) The randomization started when the mean tumor size reaches approximately 100-150 mm^3. Mice inoculated with HCT116 WT cells were randomized on day 7. Mice inoculated with HCT116 MTAP KO cells were randomized on day 8. All animals were randomly allocated to 5 study groups, each group consisted of 8 animals. Randomization was performed based on randomized block design.
(§4) Tumor volume was measured twice per week in two dimensions using a caliper, and the volume was expressed in mm^3 using the formula: “V=(L×W×W)/2”, where V is tumor volume, L is tumor length (the longest tumor dimension) and W is tumor width (the longest tumor dimension perpendicular to L).

[5] = test system: human colon cancer cell line HCT116 (MTAP KO); experiment: In vivo efficacy assay, subcutaneous HCT116 MTAP KO xenograft; design: species or system Balb/C nude female mouse; settings: 15 mg/kg PO/QD, 21 days, Balb/C nude mice
Description: as §1, §2, §3, §4

[6] = test system: cryopreserved hepatocytes; experiment: Hepatic metabolic stability (HMS) assay, cynomolgus monkey hepatocytes; settings: for T1/2 (hepatocytes) C / CLint (liver) C: cynomolgus monkey hepatocytes; for T1/2 (hepatocytes) C: 1 μM test compound (3 μM positive control); for CLint (liver) C: scaled to liver; for CLint (hep) C: cynomolgus monkey, hepatocytes
Description: 1) 10 mM test compounds were provided.
as §5, §6, §7, §8, §9, §10, §11, §12, §13, §14, §15, §16, §17, §18, §19, §20, §21

CYP3A4 = CYP3A4 (Homo sapiens (Human), UniProt P08684); experiment: CYP isoforms inhibitory assay in human liver microsome, CYP3A4
CYP3A4, sequence (P08684 whole entry, canonical isoform): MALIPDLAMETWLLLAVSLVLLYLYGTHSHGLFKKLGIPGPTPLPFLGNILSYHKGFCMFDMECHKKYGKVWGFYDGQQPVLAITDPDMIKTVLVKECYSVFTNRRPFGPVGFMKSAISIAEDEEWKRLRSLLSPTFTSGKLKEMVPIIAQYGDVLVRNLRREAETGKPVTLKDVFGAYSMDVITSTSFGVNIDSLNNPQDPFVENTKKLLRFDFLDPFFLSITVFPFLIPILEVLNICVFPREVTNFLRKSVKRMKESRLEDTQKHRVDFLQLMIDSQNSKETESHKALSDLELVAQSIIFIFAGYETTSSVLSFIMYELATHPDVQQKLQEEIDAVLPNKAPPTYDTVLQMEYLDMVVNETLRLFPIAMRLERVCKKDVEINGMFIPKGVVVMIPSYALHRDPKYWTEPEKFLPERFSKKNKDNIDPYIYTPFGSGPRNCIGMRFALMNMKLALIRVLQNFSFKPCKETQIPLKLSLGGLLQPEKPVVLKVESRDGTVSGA
Description: CYP isoforms inhibitory activities of test compounds were measured in human liver microsome.
Preparation details of these substrates are given in below table. The substrate stock solution was stored in a −20° C. freezer. Prior to use, the substrate stock solution was removed from the freezer and allowed to rise to room temperature. Then the substrate stock solution was mixed on a whirly mixer for 30 seconds.
HLMs were stored in a −80° C. freezer. Prior to use, the pooled HLM was removed from the freezer and allowed to thaw in a 37° C. water bath and then stored on wet ice.
The positive control inhibitors and their concentrations used by each isozyme are summarized below.
All samples were incubated in a 37° C. water bath, with three parallels for each concentration of the test compound and two parallels for each concentration of the positive control inhibitor. 100 μL of microsome working solution was taken and added 2 μL of the test product or positive inhibitor working solution. 2 μL solvents was added to the solvent control, and put in a water bath to pre-incubate for 10 min. After pre-incubation, 98 μL of NADPH regeneration solution was added to all samples to start the reaction. Then the mixture was put back in the water bath and incubated for a certain period of time.
The reaction was quenched by 200 μL stop solution. […]
IC50 values were determined using 3- or 4-parameter logistic equation.

[7] = test system: cryopreserved hepatocytes
Description: 1) 10 mM test compounds were provided.
as §5, §6, §7, §8, §9, §10, §11, §12, §13, §14, §15, §16, §17, §18, §19, §20, §21

[8] = Liver microsome metabolic stability (LMS) assay, dog

Compound | half-life at 1 μM [1] | half-life at 1 μM [2] | half-life at 1 μM (in vitro) | IC50 (PRMT5/MEP50) | IC50 ([3]; Homo sapiens, HCT-116, 6 days treatment) | Tumor growth inhibition (TGI) HCT 116 WT [4] | Tumor growth inhibition (TGI) HCT 116 MTAP KO [5] | T1/2 (hepatocytes) C [6] | CLint (liver) C [6] | CLint (hep) C [6] | IC50 (CYP3A4; microsomes) | IC50 (CYP3A4; read-out: IC50 CYP3A4 (midazolam), human liver microsome, substrate midazolam) | CLint (liver) D [7] | CLint (hep) D ([7]; dog) | T1/2 (hepatocytes) D ([7]; dog) | IC50 ([3]; 6 days treatment) | CLint (mic) D ([8]; dog liver microsome) | T1/2 of LMS, D ([8]; dog liver microsome 0.5 mg protein/mL, 1 μM, NADPH) | CLint (liver) D ([8]; dog liver microsome, scaled to liver)
CN(C(=O)c1ccc2nc(N)c3cncn3c2c1)[C@@H]1COc2cc(C(F)(F)F)ccc21 [Compound 12] | 2.12 h | 2.26 h | > 2.42 h | 26 nM | 43 nM | – | – | – | – | – | – | – | – | – | – | – | – | – | –
CN(C(=O)c1cc2c(cn1)nc(N)c1cncn12)C1COc2cc(C(F)(F)F)ccc21 (stereo not shown) [Compound 21] | – | – | – | 25 nM | – | 59% | 11% | >3.613 h | <23 mL/min/kg | <6.4 μL/min/10^6 | – | – | – | – | – | – | – | – | –
CN(C(=O)c1ccc2nc(N)c3cncn3c2c1)C1COc2cc(C(F)(F)F)ccc21 (stereo not shown) [Compound 17] | – | – | – | 12 nM | – | 66% | −11% | – | – | – | 27300 nM | > 30000 nM | 46.9 mL/min/kg | 6.8 μL/min/10^6 | 3.39 h | 32 nM | – | – | –
CN(C(=O)c1cc2c(cn1)nc(N)c1cncn12)C1COc2cc(C(F)(F)F)ccc21 (stereo not shown) [Compound 19] | – | – | – | 25 nM | – | 74% | 11% | 3.552 h | 23.4 mL/min/kg | 6.5 μL/min/10^6 | – | – | – | – | – | 39 nM | – | – | –
CN(C(=O)c1cc2c(cn1)nc(N)c1cncn12)C1CC(F)(F)c2cc(C(F)(F)F)ccc21 (stereo not shown) [Compound 24] | – | – | – | 14 nM | – | 62% | 3% | 2.193 h | 37.9 mL/min/kg | 10.5 μL/min/10^6 | – | – | – | – | – | 52 nM | <9.6 µL/min/mg | >2.42 h | <13.8 mL/min/kg
